Test results taken from patent US20040023228A1, “System and method for analysing active ingredients designed to influence intra-cellular processes” (priority 2000, published 2004).

Tested on: tubulin
Assay: FCS measurement of incorporation of rhodamine-labeled tubulin dimers into preformed microtubules (exchange kinetics in the assembly equilibrium)
Conditions: 10^−5M tubulin assembly mixture, 10^−9M rhodamine-labeled tubulin, 37° C.

| Structure (SMILES) | concentration up to which the action on the described kinetics can be tracked |
| --- | --- |
| COC(=O)Nc1nc2ccc(C(=O)c3cccs3)cc2[nH]1 [nocodazole] | 10^−11 M |
| CC(=O)O[C@H]1C(=O)[C@@]2(C)[C@H]([C@H](OC(=O)c3ccccc3)[C@]3(O)C[C@H](OC(=O)[C@H](O)[C@@H](NC(=O)c4ccccc4)c4ccccc4)C(C)=C1C3(C)C)[C@]1(OC(C)=O)CO[C@@H]1C[C@@H]2O [taxol, paclitaxel] | 10^−11 M |
